≈ marks a conversion by molar mass, not a printed value. Read-outs that look alike come from different tables or passages of the source.
Tests used:
[1] = known; derivatives of U.S. Pat. No. 3,514,452; cited from earlier work
[2] = test system: Streptococcus faecalis ATCC 10541; assay: Antibacterial spectrum, minimum inhibitory concentration (Table 1); format: cell-based
[3] = test system: Staphylococcus aureus ATCC 6538P; assay: as above; format: cell-based; conditions: ATCC6538P, read-out: Minimum Inhibitory Concentration, Staphylococcus aureus ATCC 6538P
[4] = test system: Klebsiella penumoniae ATCC 10031; assay: as above; format: cell-based; conditions: ATCC10031, read-out: Minimum Inhibitory Concentration, Klebsiella penumoniae ATCC 10031
[5] = test system: tumor; conditions: known; cited from earlier work
[6] = test system: Gram-nagative and Gram-positive bacteria; conditions: known; cited from earlier work
[7] = in vivo; conditions: mouse, ip
Experimental: The acute toxicity (determined as LD50) is determined in mice by intraperitoneal injection.

[8] = test system: Sarcoma 180 solid tumor; assay: Anti-tumor activity against Sarcoma 180 solid tumor in mice (Table 3); format: in vivo; conditions: male dd-strain mice; one-sixth of LD50 i.p. once daily for 8 days; tumor weight on 10th day after transplantation
Experimental: Small portions of Sarcoma 180 solid tumor are transplanted subcutaneously into male dd-strain mice of about 20 g body weight. To each of 10 mice transplanted with tumor, a solution containing one-sixth of the LD50 value of the test compound is administered intraperitoneally once daily for 8 days starting on the day following the transplantation.
As a control, an equal volume of saline is injected in the same manner as above. On the 10th day after the transplantation, the mice are sacrificed and the weight of the tumor is measured. The ratio of average tumor weight of test animals to average tumor weight of control animals (T/C) is calculated.

[9] = Lipid-solubility: distribution ratio in butanol/water (1:1) (Table 2); format: physicochemical; conditions: in butanol/water (1:1) at 25° C
From the text: In determining the lipid-solubility, the distribution ratio of the compound in water and butanol (1:1) is used as the standard.

[10] = Enterococcus faecalis, ATCC10541; read-out: Minimum Inhibitory Concentration, Streptococcus faecalis ATCC 10541

Compound | toxicity (in words) [1] | MIC [2, 10] [µg/mL] | MIC [3] [µg/mL] | MIC [4] [µg/mL] | anti-tumor activity (in words) [5] | antibacterial activity (in words) [6] | LD50 [7] [mg/kg] | Sarcoma 180 (T/C), ratio of average tumor weight of test animals to control animals [8] | Distribution Ratio (butanol/water) [9] | MIC ([2]; Enterococcus faecalis, ATCC10541, read-out: Minimum Inhibitory Concentration, Streptococcus faecalis ATCC 10541) [µg/mL]
COC12C(COC(N)=O)C3=C(C(=O)C(C)=C(N)C3=O)N1CC1NC12 (single isomer, unassigned) [mitomycin C, reference compound] | very toxic | 0.391 (≈ 1.17 µM) | 0.049 (≈ 0.147 µM) | < 0.025 | remarkably strong anti-tumor activity | very strong antibacterial activity against Gram-nagative and Gram-positive bacteria |  |  |  | 
COC12C(COC(N)=O)C3=C(C(=O)C(C)=C(N)C3=O)N1CC1C2N1C(C)=O (stereo not drawn) [1a-acetyl mitomycin C, reference compound] | much less toxicity than mitomycin C | 6.25 (≈ 16.6 µM) | 1.56 (≈ 4.15 µM) | 0.782 (≈ 2.08 µM) |  |  | 23 | 0.48 | 3.749 | 
CCCC(=O)N1C2CN3C4=C(C(=O)C(N)=C(C)C4=O)C(COC(N)=O)C3(OC)C21 (stereo not drawn) [1a-butyryl mitomycin C, reference compound] | much less toxicity than mitomycin C | 25 (≈ 61.8 µM) | 3.12 (≈ 7.73 µM) | 3.12 (≈ 7.73 µM) |  |  | 19 | 0.59 | 4.402 | 
C/C=C/C(=O)N1C2CN3C4=C(C(=O)C(N)=C(C)C4=O)C(COC(N)=O)C3(OC)C21 (stereo not drawn) [1a-crotonoyl mitomycin C, reference compound] |  | 12.5 (≈ 31.1 µM) | 1.56 (≈ 3.88 µM) | 0.782 (≈ 1.94 µM) |  |  | 35.5 | 0.53 |  | 
CCCCCCCCCC(=O)N1C2CN3C4=C(C(=O)C(N)=C(C)C4=O)C(COC(N)=O)C3(OC)C21 (stereo not drawn) [1a-decanoyl mitomycin C, la-decanoyl mitomycin C] |  | > 50 | 0.782 (≈ 1.6 µM) | 12.5 (≈ 25.6 µM) |  |  | 67.5 |  | 7.889 | 
CCCCCCCCCCCC(=O)N1C2CN3C4=C(C(=O)C(N)=C(C)C4=O)C(COC(N)=O)C3(OC)C21 (stereo not drawn) [1a-lauroyl mitomycin C, la-lauroyl mitomycin C] |  | > 50 | 0.391 (≈ 0.757 µM) | > 50 |  |  | 44.5 |  |  | 
CC/C=C\C/C=C\C/C=C\CCCCCCCC(=O)N1[C@H]2[C@@H]1CN1C3=C(C(=O)C(N)=C(C)C3=O)[C@@H](COC(N)=O)[C@@]21OC [1a-linolenoyl mitomycin C, la-linolenoyl mitomycin C] |  | 1.56 (≈ 2.63 µM) | 0.782 (≈ 1.31 µM) | 6.25 (≈ 10.5 µM) |  |  | 95 |  |  | 
CCCCC/C=C\C/C=C\CCCCCCCC(=O)N1C2CN3C4=C(C(=O)C(N)=C(C)C4=O)C(COC(N)=O)C3(OC)C21 (stereo not drawn) [1a-linoleoyl mitomycin C, la-linoleoyl mitomycin C] |  | 0.782 (≈ 1.31 µM) | 0.782 (≈ 1.31 µM) | 12.5 (≈ 20.9 µM) |  |  | 110 | 0.35 | 9.665 | 
CCCCCCCCCCCCCC(=O)N1C2CN3C4=C(C(=O)C(N)=C(C)C4=O)C(COC(N)=O)C3(OC)C21 (stereo not drawn) [1a-myristoyl mitomycin C, la-myristoyl mitomycin C] |  | 1.56 (≈ 2.87 µM) | 0.391 (≈ 0.718 µM) | > 50 |  |  | 45 |  |  | 
CCCCCCCC/C=C\CCCCCCCC(=O)N1C2CN3C4=C(C(=O)C(N)=C(C)C4=O)C(COC(N)=O)C3(OC)C21 (stereo not drawn) [1a-oleoyl mitomycin C, la-oleoyl mitomycin C] |  | 1.56 (≈ 2.61 µM) | 0.782 (≈ 1.31 µM) | > 50 |  |  | 105 | 0.31 |  | 
CCCCCCCCCCCCCCCC(=O)N1C2CN3C4=C(C(=O)C(N)=C(C)C4=O)C(COC(N)=O)C3(OC)C21 (stereo not drawn) [1a-palmitoyl mitomycin C, la-palmitoyl mitomycin C] |  | 0.782 (≈ 1.37 µM) | 0.782 (≈ 1.37 µM) | > 50 |  |  | 75 |  |  | 
CCCCCC[C@@H](O)C/C=C\CCCCCCCC(=O)N1C2CN3C4=C(C(=O)C(N)=C(C)C4=O)C(COC(N)=O)C3(OC)C21 (stereo partly drawn) [1a-ricinoleoyl mitomycin C, la-ricinoleoyl mitomycin C] |  | 0.782 (≈ 1.27 µM) | 0.391 (≈ 0.636 µM) | 0.782 (≈ 1.27 µM) |  |  | 60 | 0.28 |  | 
CCCCCCCCCCCCCCCCCC(=O)N1C2CN3C4=C(C(=O)C(N)=C(C)C4=O)C(COC(N)=O)C3(OC)C21 (stereo not drawn) [1a-stearoyl mitomycin C, la-stearoyl mitomycin C] |  | > 50 | > 50 | > 50 |  |  | 75 |  |  | 
CCCCCC/C=C/CCCCCCCCCC(=O)N1[C@H]2[C@@H]1CN1C3=C(C(=O)C(N)=C(C)C3=O)[C@@H](COC(N)=O)[C@@]21OC [1a-vaccenoyl mitomycin C, la-vaccenoyl mitomycin C] |  | 3.12 (≈ 5.22 µM) | 0.782 (≈ 1.31 µM) | 50 (≈ 83.5 µM) |  |  | 105 | 0.34 |  | 
CCCCCCCC/C=C\CCCCCCCCCCCC(=O)N1C2CN3C4=C(C(=O)C(N)=C(C)C4=O)C(COC(N)=O)C3(OC)C21 (stereo not drawn) [la-ercoyl mitomycin C] |  |  | > 50 | 50 (≈ 76.3 µM) |  |  | 125 |  |  | > 50
